Patent US20090005395A1 (Solvay Pharmaceuticals, B.V., priority 2007, published 2009)

Assays:
[1] = Reduction of sildenafil N-oxide in the human colon model TIM2; assay type: in vitro ADME
Protocol: The human colon model TIM2 (TNO Intestinal Model 2) is a dynamic model for the human large intestine that simulates in vivo conditions. It is an artificial digestive system that has been validated by many studies (Minekus, 1999).
Suspended in 1% methylcellulose, sildenafil-N-oxide (1 mg) was inserted into the lumen (120 ml) of the TIM2 model (see above, Minekus, 1999). Samples from the lumen and the dialysate (the latter being a model for the vascular bed of the intestines) were taken at various time intervals, and analyzed for sildenafil-N-oxide and sildenafil.

PDE-I = experiment: In vitro inhibition of phosphodiesterases (CEREP): PDE-I; settings: bovine brain
PDE-V = PDE-V (Homo sapiens, UniProt O76074); experiment: In vitro inhibition of phosphodiesterases (CEREP): PDE-V
PDE-II = PDE-II (Homo sapiens, UniProt O00408); experiment: In vitro inhibition of phosphodiesterases (CEREP): PDE-II
PDE-IV = experiment: In vitro inhibition of phosphodiesterases (CEREP): PDE-IV; settings: human U-937 monocytes
PDE-VI = target: T1, PDE-VI (Bos taurus, UniProt P11541+P23439); experiment: In vitro inhibition of phosphodiesterases (CEREP): PDE-VI
T1 sequence (P11541 2-856 limits assumed): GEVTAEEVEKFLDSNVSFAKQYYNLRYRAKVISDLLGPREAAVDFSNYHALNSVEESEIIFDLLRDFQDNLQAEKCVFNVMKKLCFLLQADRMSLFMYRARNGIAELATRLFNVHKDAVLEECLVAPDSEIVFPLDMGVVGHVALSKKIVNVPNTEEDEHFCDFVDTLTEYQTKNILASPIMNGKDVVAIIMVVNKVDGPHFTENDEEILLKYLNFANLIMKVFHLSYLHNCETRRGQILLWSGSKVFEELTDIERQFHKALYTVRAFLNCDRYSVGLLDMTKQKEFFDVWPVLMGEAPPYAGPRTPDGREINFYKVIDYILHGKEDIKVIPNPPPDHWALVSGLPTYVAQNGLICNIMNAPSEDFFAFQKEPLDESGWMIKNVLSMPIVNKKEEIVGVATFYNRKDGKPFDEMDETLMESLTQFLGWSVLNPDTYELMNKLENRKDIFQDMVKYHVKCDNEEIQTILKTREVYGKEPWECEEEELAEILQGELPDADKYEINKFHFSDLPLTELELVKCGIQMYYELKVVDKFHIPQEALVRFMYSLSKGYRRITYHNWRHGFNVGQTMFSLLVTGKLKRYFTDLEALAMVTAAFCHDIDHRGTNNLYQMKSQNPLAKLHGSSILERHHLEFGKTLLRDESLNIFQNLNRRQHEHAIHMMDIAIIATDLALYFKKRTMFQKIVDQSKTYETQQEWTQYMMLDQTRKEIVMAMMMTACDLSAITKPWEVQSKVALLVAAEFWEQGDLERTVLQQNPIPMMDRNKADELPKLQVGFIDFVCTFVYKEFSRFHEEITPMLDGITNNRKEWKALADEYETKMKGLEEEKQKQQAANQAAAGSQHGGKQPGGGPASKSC
T1 sequence (P23439 2-850 limits assumed): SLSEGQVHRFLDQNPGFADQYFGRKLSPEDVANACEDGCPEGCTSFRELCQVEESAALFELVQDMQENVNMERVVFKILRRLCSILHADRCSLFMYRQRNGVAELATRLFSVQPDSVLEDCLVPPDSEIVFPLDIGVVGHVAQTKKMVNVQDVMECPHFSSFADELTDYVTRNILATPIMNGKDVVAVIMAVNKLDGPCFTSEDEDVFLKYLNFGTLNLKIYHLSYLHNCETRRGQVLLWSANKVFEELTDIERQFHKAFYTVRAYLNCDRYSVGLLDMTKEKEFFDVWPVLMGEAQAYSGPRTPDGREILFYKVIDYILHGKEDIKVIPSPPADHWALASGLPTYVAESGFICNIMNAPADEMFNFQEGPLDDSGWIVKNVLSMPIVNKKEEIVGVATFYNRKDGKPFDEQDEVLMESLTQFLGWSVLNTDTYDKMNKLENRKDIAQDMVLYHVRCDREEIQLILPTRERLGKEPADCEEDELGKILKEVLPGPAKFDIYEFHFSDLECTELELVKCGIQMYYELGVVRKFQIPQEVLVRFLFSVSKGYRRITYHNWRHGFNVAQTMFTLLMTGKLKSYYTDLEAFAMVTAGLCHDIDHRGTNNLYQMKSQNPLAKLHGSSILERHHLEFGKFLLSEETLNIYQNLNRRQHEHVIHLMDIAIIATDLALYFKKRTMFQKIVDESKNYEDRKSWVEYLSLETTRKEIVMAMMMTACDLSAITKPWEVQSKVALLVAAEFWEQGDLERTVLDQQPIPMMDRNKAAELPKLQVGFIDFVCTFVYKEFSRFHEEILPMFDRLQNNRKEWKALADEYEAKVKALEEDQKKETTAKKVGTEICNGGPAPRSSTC

PDE-III = PDE-III (Homo sapiens, UniProt Q14432); experiment: In vitro inhibition of phosphodiesterases (CEREP): PDE-III
[2] = TIM2, 1 mg in 1% methylcellulose into lumen (120 ml), 0 h
[3] = TIM2, 1 mg into lumen (120 ml), 2 h
[4] = TIM2, 1 mg into lumen (120 ml), 4 h
[5] = TIM2, 1 mg into lumen (120 ml), 6 h
[6] = TIM2, 1 mg into lumen (120 ml), 8 h
[7] = TIM2, 1 mg into lumen (120 ml), 24 h

Chain of PDE-II (O00408 whole entry): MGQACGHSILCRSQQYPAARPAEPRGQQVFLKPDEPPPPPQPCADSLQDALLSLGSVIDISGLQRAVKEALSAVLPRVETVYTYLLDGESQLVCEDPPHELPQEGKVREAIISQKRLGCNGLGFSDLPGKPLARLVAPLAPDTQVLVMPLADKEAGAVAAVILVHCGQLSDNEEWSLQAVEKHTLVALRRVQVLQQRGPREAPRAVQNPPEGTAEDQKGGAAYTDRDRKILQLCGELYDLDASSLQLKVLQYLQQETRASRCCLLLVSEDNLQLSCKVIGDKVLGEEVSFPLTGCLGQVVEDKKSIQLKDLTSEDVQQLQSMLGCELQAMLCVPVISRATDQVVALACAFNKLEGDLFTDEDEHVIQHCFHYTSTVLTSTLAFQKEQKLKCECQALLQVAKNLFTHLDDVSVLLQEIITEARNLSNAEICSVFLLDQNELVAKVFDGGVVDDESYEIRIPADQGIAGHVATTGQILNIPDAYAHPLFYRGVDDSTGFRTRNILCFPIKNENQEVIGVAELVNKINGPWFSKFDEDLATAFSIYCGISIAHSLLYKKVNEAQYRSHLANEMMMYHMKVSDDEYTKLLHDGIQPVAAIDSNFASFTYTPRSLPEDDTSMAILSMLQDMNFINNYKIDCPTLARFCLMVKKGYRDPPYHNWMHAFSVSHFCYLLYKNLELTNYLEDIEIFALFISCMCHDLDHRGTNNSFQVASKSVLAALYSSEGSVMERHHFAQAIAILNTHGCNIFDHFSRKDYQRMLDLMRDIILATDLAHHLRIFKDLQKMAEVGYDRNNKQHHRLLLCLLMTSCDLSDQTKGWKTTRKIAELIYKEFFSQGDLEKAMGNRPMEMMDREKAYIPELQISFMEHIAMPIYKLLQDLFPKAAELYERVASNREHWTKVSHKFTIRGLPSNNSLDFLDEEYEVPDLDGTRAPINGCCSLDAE
Chain of PDE-III (Q14432 674-1093 limits assumed): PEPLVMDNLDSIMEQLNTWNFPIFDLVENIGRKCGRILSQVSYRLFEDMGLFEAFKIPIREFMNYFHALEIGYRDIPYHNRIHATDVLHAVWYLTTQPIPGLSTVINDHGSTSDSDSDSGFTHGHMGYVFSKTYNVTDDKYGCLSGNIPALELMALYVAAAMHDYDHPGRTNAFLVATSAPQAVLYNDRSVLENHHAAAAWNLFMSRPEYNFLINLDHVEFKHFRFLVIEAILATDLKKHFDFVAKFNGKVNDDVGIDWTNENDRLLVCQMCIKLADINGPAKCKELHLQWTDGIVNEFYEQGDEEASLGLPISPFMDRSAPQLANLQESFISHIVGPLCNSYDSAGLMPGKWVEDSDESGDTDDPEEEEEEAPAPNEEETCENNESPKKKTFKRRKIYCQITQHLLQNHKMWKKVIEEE

CCCc1nn(C)c2c(=O)[nH]c(-c3cc(S(=O)(=O)N4CC[N+](C)([O-])CC4)ccc3OCC)nc12 [Sildenafil-N-oxide, 1-[[3-(6,7-dihydro-1-methyl-7-oxo-3-propyl-1H-pyrazolo[4,3-d]pyrimidin-5-yl)-4-ethoxyphenyl]sulfonyl]-4-methyl-4-oxido-piperazine]
Sildenafil-N-oxide Dialysate concentration [1, 2]: <1.0 ng/mL
Sildenafil-N-oxide Lumen concentration [1, 2]: <1.0 ng/mL
Sildenafil-N-oxide Dialysate concentration [1, 3]: 33 ng/mL
Sildenafil-N-oxide Lumen concentration [1, 3]: 6.6 ng/mL
Sildenafil-N-oxide Dialysate concentration [1, 4]: <1.0 ng/mL
Sildenafil-N-oxide Lumen concentration [1, 4]: 4.7 ng/mL
Sildenafil-N-oxide Dialysate concentration [1, 5]: <1.0 ng/mL
Sildenafil-N-oxide Lumen concentration [1, 5]: 4.9 ng/mL
Sildenafil-N-oxide Dialysate concentration [1, 6]: <1.0 ng/mL
Sildenafil-N-oxide Lumen concentration [1, 6]: 6.7 ng/mL
Sildenafil-N-oxide Dialysate concentration [1, 7]: <1.0 ng/mL
Sildenafil-N-oxide Lumen concentration [1, 7]: 2.7 ng/mL
reduction to sildenafil in TIM2 ([1]; within 2 hours after dosing): nearly quantitatively reduced to sildenafil
pIC50 PDE-I (PDE-I): 5.8
IC50 (PDE-V): 200 nM
activity relative to the parent compound sildenafil (PDE-V): about one tenth
fold less potent than sildenafil (PDE-V; from Table 5): 10 fold
IC50 (PDE-II): > 10000 nM
pIC50 PDE-IV (PDE-IV): <5.0
IC50 (PDE-VI): 1000 nM
IC50 (PDE-III): > 10000 nM
